Laboratory results from ChEMBL document CHEMBL1129863, “Synthesis and biological evaluation of 5,6-diarylimidazo[2.1-b]thiazole as selective COX-2 inhibitors” (Bioorg Med Chem Lett, 1997).

How the values were obtained:
[1] = molecular target: T1, Prostaglandin G/H synthase 2 (Homo sapiens, UniProt P35354); type: cell-based, CHO
T1 sequence (P35354 whole entry): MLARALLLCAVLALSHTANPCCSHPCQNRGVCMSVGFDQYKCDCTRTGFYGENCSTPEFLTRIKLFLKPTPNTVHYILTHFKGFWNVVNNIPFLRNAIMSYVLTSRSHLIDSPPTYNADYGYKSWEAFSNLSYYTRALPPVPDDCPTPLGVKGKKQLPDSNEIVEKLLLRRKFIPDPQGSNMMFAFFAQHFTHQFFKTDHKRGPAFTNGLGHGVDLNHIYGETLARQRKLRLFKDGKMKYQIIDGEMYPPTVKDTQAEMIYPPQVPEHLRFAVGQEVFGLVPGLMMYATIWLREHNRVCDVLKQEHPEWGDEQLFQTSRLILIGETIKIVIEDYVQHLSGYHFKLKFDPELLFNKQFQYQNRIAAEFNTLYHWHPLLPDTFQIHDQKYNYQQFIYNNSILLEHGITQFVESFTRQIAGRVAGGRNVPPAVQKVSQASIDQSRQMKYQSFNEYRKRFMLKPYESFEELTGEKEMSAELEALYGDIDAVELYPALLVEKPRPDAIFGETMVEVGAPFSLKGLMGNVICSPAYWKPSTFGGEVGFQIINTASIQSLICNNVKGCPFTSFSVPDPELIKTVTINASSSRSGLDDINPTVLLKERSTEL

[2] = molecular target: T2, Prostaglandin G/H synthase 1 (Homo sapiens, UniProt P23219)
T2 sequence (P23219 whole entry): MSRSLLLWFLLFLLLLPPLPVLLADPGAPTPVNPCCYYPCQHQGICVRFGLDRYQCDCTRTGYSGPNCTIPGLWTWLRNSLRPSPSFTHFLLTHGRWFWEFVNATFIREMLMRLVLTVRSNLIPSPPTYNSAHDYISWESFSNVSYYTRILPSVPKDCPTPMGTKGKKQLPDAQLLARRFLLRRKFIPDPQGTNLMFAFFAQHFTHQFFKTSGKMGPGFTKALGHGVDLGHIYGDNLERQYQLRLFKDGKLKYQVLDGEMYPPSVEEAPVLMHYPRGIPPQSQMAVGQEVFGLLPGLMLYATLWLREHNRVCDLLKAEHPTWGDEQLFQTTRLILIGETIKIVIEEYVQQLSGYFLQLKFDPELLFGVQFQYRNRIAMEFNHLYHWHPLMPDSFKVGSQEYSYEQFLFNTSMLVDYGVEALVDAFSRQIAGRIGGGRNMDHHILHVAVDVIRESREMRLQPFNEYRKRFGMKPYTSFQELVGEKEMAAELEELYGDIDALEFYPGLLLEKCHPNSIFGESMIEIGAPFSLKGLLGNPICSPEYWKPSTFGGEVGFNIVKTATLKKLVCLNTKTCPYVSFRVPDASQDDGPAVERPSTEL
Description: In vitro inhibition of the production of PGE-2 in arachidonic acid stimulated chinese hamster ovary (CHO) cells transfected with human cyclooxygenase-1

[3] = molecular target: T1, Prostaglandin G/H synthase 2; assay: (§1) In vivo ability to inhibit cyclooxygenase-2 enzyme in human whole blood was determined; type: organism-based
[4] = Maximum concentration in rats at 1 hr was determined when dosed at 20 mg/Kg perorally; type: ADME, organism-based; design: dose 20 mg/Kg, route oral; conditions: rat, in vivo, po
[5] = molecular target: T2, Prostaglandin G/H synthase 1; assay: In vivo ability to inhibit cyclooxygenase-1 enzyme in human whole blood was determined; type: organism-based
[6] = system: Rattus norvegicus; assay: GI tolerance when rats were dosed at 100 mg/kg for 10 days in GI permeability assay; High level of GI tolerance; type: functional, organism-based; design: dose 100 mg/kg
[7] = system: Rattus norvegicus; assay: Effective dose to inhibit carrageenan induced rat paw edema assay was determined; type: functional
[8] = species: Rattus norvegicus; assay: animal or person; conditions: read-out: Inhibition
Description: Percentage inhibition against carrageenan induced rat paw edema assay was determined at a dose of 10 mg/Kg

[9] = molecular target: Prostaglandin G/H synthase 2 (Homo sapiens, UniProt P35354); assay: as §1; type: organism-based; remark: listed apart in the source

Compound	IC50 [1] [µM]	IC50 [2] [µM]	other results
CS(=O)(=O)c1ccc(-c2nc3sccn3c2-c2ccccc2)cc1	3.21	> 50	–
CS(=O)(=O)c1ccc(-c2c(-c3ccc(F)c(F)c3)nc3sccn23)cc1	0.012	> 50	IC50 [3]: 2.2 µM
CSc1ccc(-c2c(-c3ccccc3)nc3sccn23)cc1	0.42	0.32	–
CS(=O)(=O)c1ccc(-c2c(-c3ccccc3)nc3sccn23)cc1	0.016	> 50	Cmax [4]: 1000 nM; IC50 [3]: 0.9 µM; IC50 [5]: > 30 µM; GI tolerance [6]: High level of GI tolerance; ED50 [7]: 2 mg/kg
CCOC(=O)Cc1csc2nc(-c3ccccc3)c(-c3ccc(S(C)(=O)=O)cc3)n12	0.9	–	–
CS(=O)(=O)c1ccc(-c2c(-c3ccc(Cl)cc3)nc3sc(Cl)c(Cl)n23)cc1	3.6	> 50	–
CS(=O)(=O)c1ccc(-c2cc(Br)sc2-c2ccc(F)cc2)cc1 [DUP-697]	–	–	inhibition in vivo at 10 mg/kg [8]: 57%
CS(=O)(=O)c1ccc(-c2c(-c3ccc(F)cc3)nc3sccn23)cc1	0.014	> 50	IC50 [9]: 25 µM; IC50 [3]: 0.4 µM; ED50 [7]: 5 mg/kg
CSc1ccc(-c2nc3sccn3c2-c2ccccc2)cc1	5	0.078	–
CS(=O)(=O)c1ccc(-c2c(-c3ccccc3)nc3scc(CC(=O)O)n23)cc1	> 5	–	–
CS(=O)(=O)c1ccc(-c2c(-c3ccc(Cl)cc3)nc3sc(Cl)cn23)cc1	0.016	> 50	–

The next lines start with results.

IC50 [1] [µM]	IC50 [2] [µM]	Compound	other results
0.14	> 50	Cc1cn2c(-c3ccccc3)c(-c3ccc(S(C)(=O)=O)cc3)nc2s1	–
> 5	> 50	CS(=O)(=O)c1ccc(-c2c(-c3ccccc3)nc3sc4ccccc4n23)cc1	–
1	> 50	Cc1csc2nc(-c3ccc(S(C)(=O)=O)cc3)c(-c3ccccc3)n12	–
> 5	> 50	CS(=O)(=O)c1ccc(-c2nc3sc4ccccc4n3c2-c2ccccc2)cc1	–
5	> 50	Cc1sc2nc(-c3ccccc3)c(-c3ccc(S(C)(=O)=O)cc3)n2c1C	–
0.012	> 50	Cc1cn2c(-c3ccc(S(C)(=O)=O)cc3)c(-c3ccccc3)nc2s1	IC50 [3]: 17.5 µM
> 5	> 50	Cc1sc2nc(-c3ccc(S(C)(=O)=O)cc3)c(-c3ccccc3)n2c1C	–
3	> 50	Cc1csc2nc(-c3ccccc3)c(-c3ccc(S(C)(=O)=O)cc3)n12	–
